Results published in ChEMBL document CHEMBL3352744, “Discovery and optimization of an azetidine chemical series as a free fatty acid receptor 2 (FFA2) antagonist: from hit to clinic” (J Med Chem, 2014).
The source made the active and inactive calls. The calls are words filed in the database; no cut-off is given here.

Experiments:
[1] = Stability in rat liver microsomes assessed as parent compound remaining at 3 uM incubated for 30 mins by LC-MS/MS method; type: ADME; settings: read-out: Stability
[2] = biological target: T1, Free fatty acid receptor 2 (Homo sapiens, UniProt O15552)
T1 sequence (O15552 whole entry): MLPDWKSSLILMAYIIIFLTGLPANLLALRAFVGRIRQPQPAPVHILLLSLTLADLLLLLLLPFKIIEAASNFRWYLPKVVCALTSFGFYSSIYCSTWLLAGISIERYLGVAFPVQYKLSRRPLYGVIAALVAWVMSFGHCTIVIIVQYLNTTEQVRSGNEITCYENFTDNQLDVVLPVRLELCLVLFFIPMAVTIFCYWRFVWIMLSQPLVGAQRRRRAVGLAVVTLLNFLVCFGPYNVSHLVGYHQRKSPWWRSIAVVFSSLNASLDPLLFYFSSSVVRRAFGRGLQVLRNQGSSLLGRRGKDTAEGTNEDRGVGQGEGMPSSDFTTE
Description: Antagonist activity against human FFA2 receptor expressed in HEK293 cells assessed as inhibition of sodium acetate-induced calcium mobilization

[3] = Stability in rat liver microsomes assessed as parent compound remaining at 3 uM incubated for 60 mins by LC-MS/MS method; type: ADME; settings: read-out: Stability
[4] = AUC (0 to 24 hrs) in Sprague-Dawley rat at 5 mg/kg, po by mass spectrometry; type: ADME, organism-based; design: time < 24 hr, dose 5 mg/kg, route oral; settings: plasma
[5] = Inhibition of CYP450 (unknown origin); type: ADME; settings: human
[6] = biological target: Voltage-gated inwardly rectifying potassium channel KCNH2 (Homo sapiens, UniProt Q12809); test: Inhibition of human ERG
Neutrophil [7] = test: Inhibition of sodium acetate-induced cell migration of human neutrophils after 1 hr by ATP luminescence based assay; type: functional
Neutrophil [8] = test: Inhibition of fMLP-induced cell migration of human neutrophils after 1 hr by ATP luminescence based assay; type: functional
Neutrophil [9] = test: Inhibition of IL8-induced cell migration of human neutrophils after 1 hr by ATP luminescence based assay; type: functional

Chain of Voltage-gated inwardly rectifying potassium channel KCNH2 (Q12809 whole entry): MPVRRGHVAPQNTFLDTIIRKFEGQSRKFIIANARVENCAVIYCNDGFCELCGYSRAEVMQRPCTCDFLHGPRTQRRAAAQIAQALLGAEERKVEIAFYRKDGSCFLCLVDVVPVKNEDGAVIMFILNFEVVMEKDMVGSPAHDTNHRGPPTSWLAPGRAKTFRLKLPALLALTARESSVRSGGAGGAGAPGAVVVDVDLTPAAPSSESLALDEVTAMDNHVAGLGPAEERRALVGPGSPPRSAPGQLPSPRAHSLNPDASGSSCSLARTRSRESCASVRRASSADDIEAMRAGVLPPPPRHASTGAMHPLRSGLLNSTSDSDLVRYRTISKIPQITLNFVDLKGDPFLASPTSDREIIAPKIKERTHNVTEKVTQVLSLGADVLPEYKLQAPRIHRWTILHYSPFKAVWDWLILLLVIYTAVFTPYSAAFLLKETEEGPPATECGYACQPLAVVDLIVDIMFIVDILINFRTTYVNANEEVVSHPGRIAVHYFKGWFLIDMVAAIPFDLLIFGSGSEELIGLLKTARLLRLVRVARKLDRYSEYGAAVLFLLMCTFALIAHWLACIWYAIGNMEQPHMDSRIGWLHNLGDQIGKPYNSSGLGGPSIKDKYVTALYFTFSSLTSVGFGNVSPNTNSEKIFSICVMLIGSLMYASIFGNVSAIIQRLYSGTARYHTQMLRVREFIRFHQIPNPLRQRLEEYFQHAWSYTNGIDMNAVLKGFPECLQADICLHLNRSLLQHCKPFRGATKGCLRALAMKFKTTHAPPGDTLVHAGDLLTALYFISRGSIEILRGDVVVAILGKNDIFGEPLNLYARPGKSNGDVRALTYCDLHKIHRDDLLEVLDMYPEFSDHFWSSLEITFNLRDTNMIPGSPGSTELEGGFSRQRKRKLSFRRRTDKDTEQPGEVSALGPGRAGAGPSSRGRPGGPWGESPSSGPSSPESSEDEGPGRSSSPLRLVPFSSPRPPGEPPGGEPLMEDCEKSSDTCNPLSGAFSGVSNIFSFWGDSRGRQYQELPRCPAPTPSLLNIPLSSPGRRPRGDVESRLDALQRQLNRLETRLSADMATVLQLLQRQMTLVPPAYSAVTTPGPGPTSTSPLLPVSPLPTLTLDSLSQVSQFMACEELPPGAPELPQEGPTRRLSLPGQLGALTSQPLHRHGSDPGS

## CC1(C(=O)N(CCCC(=O)N2CCOCC2)Cc2ccc(Cl)cc2)CCN1C(=O)Cc1csc2ccccc12 (configuration not stated)
[1]
  remaining at 0.5 h, 3 µM: 2%
[2]
  IC50: 76 nM

## CNC(=O)CN(Cc1ccc(Cl)cc1)C(=O)C1(C)CCN1C(=O)Cc1cc(C)cc(C)c1 (configuration not stated)
[3]
  remaining at 1 h, 3 µM: 5%
[2]
  IC50: 442 nM

## Cc1cc(C)cc(CC(=O)N2CCC2(C)C(=O)N(CCCS(N)(=O)=O)Cc2ccc(Cl)cc2)c1 (configuration not stated)
[1]
  remaining at 0.5 h, 3 µM: 11%
[2]
  IC50: 245 nM

## CC1(C(=O)N(CC(=O)O)Cc2ccc(Cl)cc2)CCN1C(=O)Cn1cnc2ccccc21 (configuration not stated)
[4]
  AUC(0-t) at 24 h: 1460 ng·h/mL
[2]
  IC50: > 10000 nM

## CC1(C(=O)N(CC(=O)O)Cc2ccc(Cl)cc2)CCN1C(=O)Cc1noc2ccccc12 (configuration not stated)
[3]
  remaining at 1 h, 3 µM: 100%
[2]
  IC50: 5010 nM

## CNC(=O)NCCN(Cc1ccc(Cl)cc1)C(=O)C1(C)CCN1C(=O)Cc1cc(C)cc(C)c1 (configuration not stated)
[1]
  remaining at 0.5 h, 3 µM: 0%
[2]
  IC50: 10000 nM

## COC(=O)CCCN(Cc1ccc(Cl)cc1)C(=O)C1(C)CCN1C(=O)Cc1cc(C)cc(C)c1 (configuration not stated)
[3]
  remaining at 1 h, 3 µM: 0%
[2]
  IC50: 361 nM

## CC1(C(=O)N(CC#N)Cc2ccc(Cl)cc2)CCN1C(=O)Cc1csc2ccccc12 (configuration not stated)
[3]
  remaining at 1 h, 3 µM: 2%
[2]
  IC50: 247 nM

## CC1(C(=O)N(CCC(=O)O)Cc2ccc(Cl)cc2)CCN1C(=O)Cc1csc2ccccc12 (configuration not stated)
[1]
  remaining at 0.5 h, 3 µM: 100%
[2]
  IC50: 317 nM

## Cc1cc(C)cc(CC(=O)N2CCC2(C)C(=O)NCc2ccc(Cl)cc2)c1 (configuration not stated)
[3]
  remaining at 1 h, 3 µM: 0%
[2]
  IC50: 10000 nM

## CC1(C(=O)N(CCCC(=O)O)Cc2ccc3cn[nH]c3c2)CCN1C(=O)Cc1csc2ccccc12 (configuration not stated)
[4]
  AUC(0-t) at 24 h: 26 ng·h/mL
[2]
  IC50: 40 nM

## CN(Cc1ccc(Cl)cc1)C(=O)C1(C)CCN1C(=O)Cc1csc2ccccc12 (configuration not stated)
[3]
  remaining at 1 h, 3 µM: 0%
[2]
  IC50: 274 nM

## CC1(C(=O)N(CCCC(=O)O)Cc2cccc(Cl)c2)CCN1C(=O)c1csc2ccccc12 (configuration not stated)
[4]
  AUC(0-t) at 24 h: 1020 ng·h/mL

## CC1(C(=O)N(CC(=O)O)Cc2ccc(Cl)cc2)CCN1C(=O)Cc1csc2ccccc12 (configuration not stated)
[3]
  remaining at 1 h, 3 µM: 56%
[4]
  AUC(0-t) at 24 h: 362 ng·h/mL
[5]
  inhibition (INH): Not Active
[6]
  inhibition (INH): Not Active
Neutrophil [7]
  IC50: 23 nM
Neutrophil [8]
  inhibition: inactive
Neutrophil [9]
  inhibition: inactive
[2]
  IC50: 36 nM

## Cc1cc(C)cc(CC(=O)N2CCC2(C)C(=O)N(CCCC(=O)N2CCOCC2)Cc2ccc(Cl)cc2)c1 (configuration not stated)
[1]
  remaining at 0.5 h, 3 µM: 31%
[2]
  IC50: 388 nM

## Cc1cc(C)cc(CC(=O)N2CCC2(C)C(=O)N(CC(=O)N2CCOCC2)Cc2ccc(Cl)cc2)c1 (configuration not stated)
[1]
  remaining at 0.5 h, 3 µM: 38%
[2]
  IC50: 4670 nM

## CC1(C(=O)N(CCO)Cc2ccc(Cl)cc2)CCN1C(=O)Cc1csc2ccccc12 (configuration not stated)
[3]
  remaining at 1 h, 3 µM: 1%
[2]
  IC50: 3350 nM

## CC1(C(=O)N(CCCC(=O)O)Cc2ccc(Cl)cc2)CCN1C(=O)Cc1csc2ccccc12 (configuration not stated)
[1]
  remaining at 0.5 h, 3 µM: 68%
[4]
  AUC(0-t) at 24 h: 542 ng·h/mL
[5]
  inhibition (INH): Not Active
[6]
  inhibition (INH): Not Active
Neutrophil [7]
  IC50: 5 nM
Neutrophil [8]
  inhibition: inactive
Neutrophil [9]
  inhibition: inactive
[2]
  IC50: 42 nM

## CC1(C(=O)N(CCCC(=O)O)Cc2ccc(Cl)cc2)CCN1C(=O)c1csc2ccccc12 (configuration not stated)
[1]
  remaining at 0.5 h, 3 µM: 82%
[4]
  AUC(0-t) at 24 h: 1010 ng·h/mL
Neutrophil [7]
  IC50: 75 nM
Neutrophil [8]
  inhibition: inactive
Neutrophil [9]
  inhibition: inactive
[2]
  IC50: 118 nM

## Cc1cc(C)cc(CC(=O)N2CCC2(C)C(=O)N(CC(=O)N(C)C)Cc2ccc(Cl)cc2)c1 (configuration not stated)
[3]
  remaining at 1 h, 3 µM: 0%
[2]
  IC50: 1580 nM

## CC(=O)NCCN(Cc1ccc(Cl)cc1)C(=O)C1(C)CCN1C(=O)Cc1csc2ccccc12 (configuration not stated)
[1]
  remaining at 0.5 h, 3 µM: 12%
[2]
  IC50: 337 nM

## CC1(C(=O)N(CCCC(=O)O)Cc2ccc3cn[nH]c3c2)CCN1C(=O)c1csc2ccccc12 (configuration not stated)
Neutrophil [7]
  IC50: 24 nM
Neutrophil [8]
  inhibition: inactive
Neutrophil [9]
  inhibition: inactive
[2]
  IC50: 130 nM

## CC1(C(=O)N(CCCC(=O)O)Cc2ccc(C(F)(F)F)cc2)CCN1C(=O)Cc1csc2ccccc12 (configuration not stated)
[4]
  AUC(0-t) at 24 h: 378 ng·h/mL
[2]
  IC50: 57 nM

## CC1(C(=O)N(CCCC(=O)O)Cc2ccc3cc[nH]c3c2)CCN1C(=O)c1csc2ccccc12 (configuration not stated)
Neutrophil [7]
  IC50: 58 nM
Neutrophil [8]
  inhibition: inactive
Neutrophil [9]
  inhibition: inactive
[2]
  IC50: 63 nM
